Test results taken from patent US20020137929A1, “1 - (3-heterocyclylphenyl) isothiourea, -isourea, -guanidine and -amidine herbicidal agents” (Intellectual Property Department, BASF Aktiengesellschaft, priority 1998, published 2002).

Experiments:
[1] = test system: ECHCG (Barnyardgrass); test: Preemergence herbicidal evaluation; format: in vivo, Echinochloa crus-galli; conditions: rated 4-5 weeks after treatment
Summary of the method: (§1)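 Each species is sown separately in potting soil over roughly an inch of soil before any emergence. The soil surface then receives an aqueous acetone spray delivering about 0.0156 to 0.500 kg/ha of compound. After four to five weeks, injury is scored from 0 to 9 relative to a control.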

[2] = test system: ZEAMX (Corn, Field); test: Postemergence herbicidal evaluation; format: in vivo, Zea mays; conditions: postemergence
Summary of the method: (§2)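 Two-week seedlings sprayed postemergence at 40 psi; formulation: 1:1 acetone/water, 0.5% TWEEN 20; application ≈0.0156–0.500 kg/ha. Greenhouse grow-out, then 0–9 visual scoring at 4–5 weeks.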

[3] = test system: IPOHE (Morningglory, Ivyleaf); test: Postemergence herbicidal evaluation; format: in vivo, Ipomoea hederacea; conditions: postemergence
Summary of the method: as §2

[4] = test system: ZEAMX (Corn, Field); test: Preemergence herbicidal evaluation; format: in vivo, Zea mays; conditions: rated 4-5 weeks after treatment
Summary of the method: as §1

[5] = test system: CASOB (Sicklepod); test: Preemergence herbicidal evaluation; format: in vivo, Cassia obtusifolia; conditions: rated 4-5 weeks after treatment
Summary of the method: as §1

[6] = test system: CHEAL (Lambsquarters, Common); test: Postemergence herbicidal evaluation; format: in vivo, Chenopodium album; conditions: postemergence
Summary of the method: as §2

[7] = test system: ABUTH (Velvetleaf); test: Preemergence herbicidal evaluation; format: in vivo, Abutilon theophrasti; conditions: rated 4-5 weeks after treatment
Summary of the method: as §1

[8] = test system: ABUTH (Velvetleaf); test: Postemergence herbicidal evaluation; format: in vivo, Abutilon theophrasti; conditions: postemergence
Summary of the method: as §2

[9] = test system: IPOHE (Morningglory, Ivyleaf); test: Preemergence herbicidal evaluation; format: in vivo, Ipomoea hederacea; conditions: rated 4-5 weeks after treatment
Summary of the method: as §1

[10] = test system: CHEAL (Lambsquarters, Common); test: Preemergence herbicidal evaluation; format: in vivo, Chenopodium album; conditions: rated 4-5 weeks after treatment
Summary of the method: as §1

[11] = test system: ECHCG (Barnyardgrass); test: Postemergence herbicidal evaluation; format: in vivo, Echinochloa crus-galli; conditions: postemergence
Summary of the method: as §2

[12] = test system: TRZAWR (Wheat, Winter, cv Riband); test: Preemergence herbicidal evaluation; format: in vivo, Triticum aestivum; conditions: rated 4-5 weeks after treatment
Summary of the method: as §1

[13] = test system: SETVI (Foxtail, Green); test: Postemergence herbicidal evaluation; format: in vivo, Setaria viridis; conditions: postemergence
Summary of the method: as §2

[14] = test system: GLXMAW (Soybean, Williams); test: Preemergence herbicidal evaluation; format: in vivo, Glycine max, (L.) Merr. cv Williams; conditions: rated 4-5 weeks after treatment
Summary of the method: as §1

[15] = test system: ORYSAT (Rice, Tebonnet); test: Postemergence herbicidal evaluation; format: in vivo, Oryza sativa, (L.) Tebonnet; conditions: postemergence
Summary of the method: as §2

**Q.** Which results are given for Cn1c(C(F)(F)F)cc(=O)n(-c2cc(N=C3SCC(=O)N3CC(=O)OCC3CCCCC3)c(Cl)cc2F)c1=O [Compound 123, Cyclohexylmethyl 2-{{2-chloro-5-[3,6-dihydro-3-methyl-2,6-dioxo-4-(trifluoromethyl)-1(2H)-pyrimidinyl]-4-fluorophenyl}imino}-4-oxo-3-thiazolidineacetate]?
**A.** Preemergence herbicidal rating ECHCG ([1]; rate 0.0156 kg/ha): 0.0; Preemergence herbicidal rating ECHCG ([1]; rate 0.0313 kg/ha): 0.0; Preemergence herbicidal rating ECHCG ([1]; rate 0.0625 kg/ha): 0.0; Preemergence herbicidal rating ECHCG ([1]; rate 0.1250 kg/ha): 1.0; Preemergence herbicidal rating ECHCG ([1]; rate 0.2500 kg/ha): 4.0; Preemergence herbicidal rating ECHCG ([1]; rate 0.5000 kg/ha): 7.0; Herbicidal rating ZEAMX ([2]; rate 0.0156 kg/ha): 6.5; Herbicidal rating ZEAMX ([2]; rate 0.0313 kg/ha): 7.0; Herbicidal rating ZEAMX ([2]; rate 0.0625 kg/ha): 7.5; Herbicidal rating ZEAMX ([2]; rate 0.1250 kg/ha): 7.5; Herbicidal rating IPOHE ([3]; rate 0.0156 kg/ha): 9.0; Herbicidal rating IPOHE ([3]; rate 0.0313 kg/ha): 9.0; Herbicidal rating IPOHE ([3]; rate 0.0625 kg/ha): 9.0; Herbicidal rating IPOHE ([3]; rate 0.1250 kg/ha): 9.0; Preemergence herbicidal rating ZEAMX ([4]; rate 0.0156 kg/ha): 0.0; Preemergence herbicidal rating ZEAMX ([4]; rate 0.0313 kg/ha): 1.0; Preemergence herbicidal rating ZEAMX ([4]; rate 0.0625 kg/ha): 1.0; Preemergence herbicidal rating ZEAMX ([4]; rate 0.1250 kg/ha): 5.0; Preemergence herbicidal rating ZEAMX ([4]; rate 0.2500 kg/ha): 7.0; Preemergence herbicidal rating ZEAMX ([4]; rate 0.5000 kg/ha): 7.0; Preemergence herbicidal rating CASOB ([5]; rate 0.0156 kg/ha): 0.0; Preemergence herbicidal rating CASOB ([5]; rate 0.0313 kg/ha): 0.0; Preemergence herbicidal rating CASOB ([5]; rate 0.0625 kg/ha): 0.0; Preemergence herbicidal rating CASOB ([5]; rate 0.1250 kg/ha): 0.0; Preemergence herbicidal rating CASOB ([5]; rate 0.5000 kg/ha): 3.0; Herbicidal rating CHEAL ([6]; rate 0.0156 kg/ha): 9.0; Herbicidal rating CHEAL ([6]; rate 0.0313 kg/ha): 9.0; Herbicidal rating CHEAL ([6]; rate 0.0625 kg/ha): 9.0; Herbicidal rating CHEAL ([6]; rate 0.1250 kg/ha): 9.0; Preemergence herbicidal rating ABUTH ([7]; rate 0.0156 kg/ha): 9.0; Preemergence herbicidal rating ABUTH ([7]; rate 0.0313 kg/ha): 9.0; Preemergence herbicidal rating ABUTH ([7]; rate 0.0625 kg/ha): 9.0; Preemergence herbicidal rating ABUTH ([7]; rate 0.1250 kg/ha): 9.0; Preemergence herbicidal rating ABUTH ([7]; rate 0.2500 kg/ha): 9.0; Preemergence herbicidal rating ABUTH ([7]; rate 0.5000 kg/ha): 9.0; Herbicidal rating ABUTH ([8]; rate 0.0156 kg/ha): 9.0; Herbicidal rating ABUTH ([8]; rate 0.0313 kg/ha): 9.0; Herbicidal rating ABUTH ([8]; rate 0.0625 kg/ha): 9.0; Herbicidal rating ABUTH ([8]; rate 0.1250 kg/ha): 9.0; Preemergence herbicidal rating IPOHE ([9]; rate 0.0156 kg/ha): 0.0; Preemergence herbicidal rating IPOHE ([9]; rate 0.0313 kg/ha): 0.0; Preemergence herbicidal rating IPOHE ([9]; rate 0.0625 kg/ha): 0.0; Preemergence herbicidal rating IPOHE ([9]; rate 0.1250 kg/ha): 7.0; Preemergence herbicidal rating IPOHE ([9]; rate 0.2500 kg/ha): 9.0; Preemergence herbicidal rating IPOHE ([9]; rate 0.5000 kg/ha): 9.0; Preemergence herbicidal rating CHEAL ([10]; rate 0.0156 kg/ha): 9.0; Preemergence herbicidal rating CHEAL ([10]; rate 0.0313 kg/ha): 9.0; Preemergence herbicidal rating CHEAL ([10]; rate 0.0625 kg/ha): 9.0; Preemergence herbicidal rating CHEAL ([10]; rate 0.1250 kg/ha): 9.0; Preemergence herbicidal rating CHEAL ([10]; rate 0.2500 kg/ha): 9.0; Preemergence herbicidal rating CHEAL ([10]; rate 0.5000 kg/ha): 9.0; Herbicidal rating ECHCG ([11]; rate 0.0156 kg/ha): 5.0; Herbicidal rating ECHCG ([11]; rate 0.0313 kg/ha): 5.0; Herbicidal rating ECHCG ([11]; rate 0.0625 kg/ha): 7.0; Herbicidal rating ECHCG ([11]; rate 0.1250 kg/ha): 9.0; Preemergence herbicidal rating TRZAWR ([12]; rate 0.0156 kg/ha): 0.0; Preemergence herbicidal rating TRZAWR ([12]; rate 0.0313 kg/ha): 0.0; Preemergence herbicidal rating TRZAWR ([12]; rate 0.0625 kg/ha): 0.0; Preemergence herbicidal rating TRZAWR ([12]; rate 0.1250 kg/ha): 1.0; Preemergence herbicidal rating TRZAWR ([12]; rate 0.2500 kg/ha): 1.0; Preemergence herbicidal rating TRZAWR ([12]; rate 0.5000 kg/ha): 1.0; Herbicidal rating SETVI ([13]; rate 0.0156 kg/ha): 9.0; Herbicidal rating SETVI ([13]; rate 0.0313 kg/ha): 9.0; Herbicidal rating SETVI ([13]; rate 0.0625 kg/ha): 9.0; Herbicidal rating SETVI ([13]; rate 0.1250 kg/ha): 9.0; Preemergence herbicidal rating GLXMAW ([14]; rate 0.0156 kg/ha): 0.0; Preemergence herbicidal rating GLXMAW ([14]; rate 0.0313 kg/ha): 0.0; Preemergence herbicidal rating GLXMAW ([14]; rate 0.0625 kg/ha): 1.0; Preemergence herbicidal rating GLXMAW ([14]; rate 0.1250 kg/ha): 4.0; Preemergence herbicidal rating GLXMAW ([14]; rate 0.2500 kg/ha): 9.0; Preemergence herbicidal rating GLXMAW ([14]; rate 0.5000 kg/ha): 6.0; Herbicidal rating ORYSAT ([15]; rate 0.0156 kg/ha): 4.0; Herbicidal rating ORYSAT ([15]; rate 0.0313 kg/ha): 4.0; Herbicidal rating ORYSAT ([15]; rate 0.0625 kg/ha): 5.5; Herbicidal rating ORYSAT ([15]; rate 0.1250 kg/ha): 5.5
